Here are results for 30 compounds from PubChem BioAssay AID602308 (Southern Research Specialized Biocontainment Screening …, 2012).

Active and inactive are the calls of the source. No rule for the calls is given here.

In the first test the target is Flavivirus NS5 methyltransferase / guanylyltransferase (capping enzyme). Kind of test: NS5 cap-forming enzyme inhibition – biochemical, confirmation (AID 602308). As to conditions: Flavivirus NS5 capping enzyme biochemical inhibition assay.
For the compound `O=C(O)CSc1cc(NS(=O)(=O)c2ccc(Cl)cc2)c2ccccc2c1O`, the IC50 – broadly, the concentration needed to halve the response being measured – was 5.45 µM. The same measure, in the same setting: next, `O=[N+]([O-])c1cccc(S(=O)(=O)Nc2cc(SCc3ccccc3)c(O)c3ccccc23)c1`: 14.8 µM; `Cn1c(=O)c2[nH]c(-c3ccccc3)c(O)c2n(C)c1=O`: 28.1 µM. As for `O=S(=O)(Nc1cc(Cl)c(O)c2ccccc12)c1ccc(F)cc1`, the IC50 was 17.8 µM.

As to `Cn1c(=O)c2[nH]c(-c3ccc(Cl)cc3)c(O)c2n(C)c1=O`, the IC50 is 57.8 µM. Turning to `O=S(=O)(Nc1cc(Sc2ncn[nH]2)c(O)c2ccccc12)c1ccc(F)cc1`, the IC50 is 10.2 µM.

As to `Cc1ccc(S(=O)(=O)Nc2cc(Sc3nc(C)cc(C)n3)c(O)c3ccccc23)cc1`, the IC50 is 83.8 µM.

Regarding `O=S(=O)(Nc1cc(SCc2ccccc2)c(O)c2ccccc12)c1ccc(Cl)cc1`, the IC50 is 43.3 µM.

Regarding `O=C(O)CSc1cc(NS(=O)(=O)c2cccc3cccnc23)c2ccccc2c1O`, the IC50 is 6.62 µM. Still for that read-out and setting: next, `O=C(O)CSc1cc(NS(=O)(=O)c2cccc([N+](=O)[O-])c2)c2ccccc2c1O`: 3.83 µM; `O=C(O)CSc1cc(NS(=O)(=O)c2ccc(F)cc2)c2ccccc2c1O`: 7.32 µM. As for `Cc1cc(C)c(S(=O)(=O)Nc2cc(SCC(=O)O)c(O)c3ccccc23)c(C)c1`, the IC50 is 6.95 µM.

Consider `Cc1cc(F)ccc1S(=O)(=O)Nc1cc(SCC(=O)O)c(O)c2ccccc12`, for which the half-inhibitory concentration (IC50) is 5.66 µM. For `O=S(=O)(Nc1cc(Sc2ccccc2)c(O)c2ccccc12)c1ccc(F)cc1`, the IC50 is 35.6 µM. Still for that read-out and setting: next, `Cc1ccc(S(=O)(=O)Nc2cc(SCC(=O)O)c(O)c3ccccc23)cc1`: 6.24 µM. `COc1ccc(OC)c(S(=O)(=O)Nc2cc(SCC(=O)O)c(O)c3ccccc23)c1`: the IC50 was 9.09 µM.

Turning to `O=[N+]([O-])c1cccc(S(=O)(=O)Nc2cc(Sc3nc4ccccc4s3)c(O)c3ccccc23)c1`, the IC50 was 34.3 µM.

On to `O=C(O)CSc1cc(NS(=O)(=O)c2ccc(Br)cc2)c2ccccc2c1O`, for which the IC50 was 4.96 µM.

The same test, now with this note: Flavivirus NS5 capping enzyme biochemical inhibition assay; at 100 µM (top of the series).
For the compound `Cn1c(=O)c2[nH]c(-c3cccc4ccccc34)c(O)c2n(C)c1=O`, the inhibition entry is “inactive”.

For `Cc1ccn2cc(-c3ccccc3)nc2c1`, the inhibition entry was “inactive”. On to `Cc1nc2nc(-c3ccccc3)cn2nc1C`, for which the inhibition result was “inactive”. For the compound `CN(C)C(=O)c1ccc2nc(-c3ccccc3)cn2c1`, the inhibition entry is “inactive”. On to `Clc1ccc2nc(-c3cccs3)cn2c1`, for which the inhibition result was “inactive”. For `Cc1nc2nc(-c3ccc(Cl)cc3)cn2nc1C`, the inhibition result was “inactive”. For the compound `Clc1ccc2nc(-c3ccccc3)cn2c1`, the inhibition result is “inactive”. For the compound `Cc1ccc(-c2cn3nc(C)c(C)nc3n2)cc1`, the inhibition result is “inactive”.

In the case of `Cn1c(=O)c2[nH]c(-c3ccccc3)nc2n(C)c1=O`, the inhibition entry is “inactive”. Still for that read-out and setting: next, `Cc1nc2nc(-c3ccc(F)cc3)cn2nc1C`: “inactive”. The same measure, in the same setting: the same measure for `Cn1c(=O)c2cnc(-c3ccccc3)nc2n(C)c1=O`: “inactive”; for `Cc1ccc2nc(-c3ccccc3)cn2c1`: “inactive”.
